# Test results as given in ChEMBL document CHEMBL3507680, “University of Dundee, Gates Library screen for HepG2 cell viability”.
# Assay: Human HepG2 cell viability assay in 384 well format
# Assay type: toxicity, cell-based
# Parameters: dose 125 nL, time 70.5 hour; cytotoxicity at 70.5 h: concentration not given beside the values
# Details: HepG2 cells, read-out: Inhibition
row,SMILES,cytotoxicity at 70.5 h [%]
1,CCc1nc(CC(=O)N2CCCC2Cn2cccn2)cs1 (configuration not stated),2.11
2,Cc1nc(C)n(CC2CCCN2Cc2cn3c(C)cccc3n2)n1 (configuration not stated),-4.2
3,OC(CNCCn1cccn1)c1ccc(F)c(F)c1 (configuration not stated),0.389
4,CC(Cn1cccn1)NC(=O)N1CCN(Cc2cccs2)CC1 (configuration not stated),17
5,CC(Cn1cccn1)NC(=O)NCc1ccccn1 (configuration not stated),-3.27
6,Cc1cc(NC(=O)NCC2CCOC2)no1 (configuration not stated),-11.6
7,O=C(NCCCN1CCc2ccccc2C1)c1cccnc1O,-11.9
8,Cc1cc(C(=O)NCc2ccc(N3CCCC(C(N)=O)C3)cc2)[nH]n1 (configuration not stated),-2.55
9,Cc1occc1C(=O)NCc1ccc(N2CCCC(C(N)=O)C2)cc1 (configuration not stated),-6.48
10,CC(Cn1cccn1)NC(=O)NCc1cccs1 (configuration not stated),-16.6
11,CS(=O)(=O)c1ccccc1C(=O)NCCCN1CCc2ccccc2C1,18.5
12,Cc1cn2c(n1)CCC(NC(=O)c1cc(Br)cn1C)C2 (configuration not stated),1.7
13,Cc1cc(OCC(=O)N2CCCC(c3ccn[nH]3)C2)no1 (configuration not stated),-5.93
14,Cc1cc(C(=O)NC2CCc3nc(C)cn3C2)[nH]n1 (configuration not stated),-5.51
15,Cc1cn2c(n1)CCC(NC(=O)c1c[nH]c(C)n1)C2 (configuration not stated),-5.66
16,Cn1nc2c(cc1=O)CN(Cc1nc(C(C)(C)C)no1)CC2,-5.46
17,Cc1cc(CN(C)C(=O)c2ccc(Cl)c(S(C)(=O)=O)c2)no1,13.8
18,COc1cccc(C(=O)NCCCN2CCc3ccccc3C2)c1OC,-11.3
19,Cn1cnc2c1CCN(CCS(=O)(=O)c1ccccc1)C2,-17
20,Cc1nc(C2CCCN(C(=O)COCc3ccccc3Cl)C2)no1 (configuration not stated),-7.76
21,Cc1nc(C)n(CC2CN(CCCOc3ccccc3C)CCO2)n1 (configuration not stated),11.3
22,COc1c(C2CCCN2Cc2c(C)noc2C)c(C)nn1C (configuration not stated),-5.56
23,O=C(C1CCN(c2snc3ccccc23)CC1)N1CCCCCC1,28.1
24,Cc1nn(C)c(N(C)C)c1CNCc1ccccc1CN(C)C,18.8

row,SMILES,cytotoxicity at 70.5 h [%]
1,CCc1nnc(CNCC2CCN(CC(O)c3ccccc3)CC2)o1 (configuration not stated),15.4
2,CC(OCC1CC1)C(=O)N1CCCN(Cc2cnn(C)c2)CC1 (configuration not stated),24.6
3,CC(OCC1CC1)C(=O)N1CCCN(Cc2nccn2C)CC1 (configuration not stated),-11.2
4,COc1cc(C(=O)NC(CC(=O)O)c2cccs2)cc(Cl)c1OC (configuration not stated),-8.1
5,Cc1noc(C)c1CNCC1CCN(CC(O)c2ccccc2)CC1 (configuration not stated),2.35
6,Cc1cn2nc(N3CCCN(Cc4noc(C)n4)CC3)sc2n1,-4.93
7,CN(C)CC1CN(c2ncnc3[nH]ccc23)CCO1 (configuration not stated),5.61
8,Cc1ccc(NC(=O)N2CCN(Cc3noc(C4CC4)n3)CC2)cc1,27.4
9,Cc1cc(C)cc(NS(=O)(=O)c2cc3c(c(C(=O)O)c2)OCCO3)c1,-5.38
10,CCc1cccc(NS(=O)(=O)c2cc3c(c(C(=O)O)c2)OCCO3)c1,4.16
11,Cc1ccn2cc(C(=O)N3CCCC3c3c(C)nn(C)c3C)nc2c1 (configuration not stated),-7.44
12,Cc1cc(C(=O)N2CCc3nnc(N)cc3C2)c(C)n1-c1cccnc1,-1.23
13,O=C(C1CCC1)N1CCN(c2snc3ccccc23)CC1,44.7
14,CC(C)(O)CN1CCN(C(=O)c2sccc2C2CC2)CC1,-6.03
15,COc1ccc(COCC(O)CNC(=O)c2cnc(C)cn2)cc1 (configuration not stated),-8.25
16,CC(C)n1ccnc1CN1CCCN(C(=O)CC2C=CCC2)CC1 (configuration not stated),31.4
17,Cc1cnn(CCNCc2ccccc2OCc2cccnc2)c1,-3.61
18,CC(NCc1cccnc1)c1ccc(OCC(=O)NC2CC2)cc1 (configuration not stated),-8.83
19,Cc1csc(N2CCCN(Cc3noc(C)n3)CC2)n1,-1.5
20,CCn1ncc2c1CCCC2NCc1cccc2c1OCCO2 (configuration not stated),-13.8
21,Cc1nc(CN2CCCN(C(=O)C(C)OCC3CC3)CC2)cs1 (configuration not stated),-8.36
22,CC(=O)Nc1nc(C(=O)NCc2ccc(N3CCCCCC3)nc2)cs1,7.57
23,Cc1ccc(-c2nc(CN3CCN(S(=O)(=O)N(C)C)CC3)cs2)o1,1.51
